The record followed here is patent publication US20240207302A1, “ANTIVIRAL COMPOUNDS, METHODS FOR THE MANUFACTURING OF COMPOUNDS, ANTIVIRAL PHARMACEUTICAL COMPOSITION, USE OF THE COMPOUNDS AND METHOD FOR THE ORAL TREATMENT OF CORONAVIRUS INFECTION AND RELATED DISEASES THEREOF” (priority 2021, published 2024).

Broadly, the EC50 is the midpoint of the concentration-response curve. A word on the EC90: it is the concentration needed for an effect of 90%. As usually defined, the CC50 is the concentration that lowers cell viability or growth by half.

For data set [1], the system named is SARS-COV-2.
Data set [2] can be described thus: Cytotoxicity assay (XTT) in Huh-7 cells. The data set is classed as cell-based. The note with it: human.
Protocol: In parallel, cytotoxicity assays were performed. Monolayers of 1.5×10^4 cells in 96-well plates were treated for 3 days with various concentrations (semi-log dilutions from 1,000 to 10 μM) of the antiviral drugs. Then, 5 mg/mL 2,3-bis-(2-methoxy-4-nitro-5-sulfophenyl)-2H-tetrazolium-5-carboxanilide (XTT) in DMEM was added to the cells in the presence of 0.01% of N-methyl dibenzopyrazine methyl sulfate (PMS).
The nature of data set [3]: Cytotoxicity assay (XTT) in Calu-3 cells. The data set is classed as cell-based, human. The note with it: human, Calu-3, single moment treatment. The method, then:
(§1) In parallel, cytotoxicity assays were performed.
Background: Tetrazolium assays rely on reduction of a dye to a coloured formazan, in cell work by metabolically active cells.

In data set [4] the test system is SARS-COV-2. Kind of data set: SARS-COV-2 viral RNA synthesis in HuH-7 cells (real time RT-PCR). The data set is classed as cell-based.
For data set [5], the system named is SARS-COV-2. Kind of data set: Combination with SARS-COV-2 nsp14 (exonuclease) inhibitors in Calu-3 cells, infectious virus titers. The data set is classed as cell-based. The following applies: calu-3; drug 10 μM, raltegravir or dolutegravir 5 μM.
In data set [6] the test system is SARS-COV-2. Kind of data set: SARS-COV-2 viral RNA synthesis in Vero cells (real time RT-PCR). The data set is classed as cell-based. (Quantitative PCR measures a nucleic acid by following its amplification.)
Data set [7] can be described thus: Cytotoxicity assay (XTT) in Vero cells. The following applies: African green monkey. The data set is classed as cell-based. The method, then: as §1
In data set [8] the test system is SARS-COV-2. Kind of data set: SARS-COV-2 RNA loads in human primary monocytes. The data set is classed as cell-based. The following applies: 24 h. The method, then: FIG. 5A, 5B and 5C. The compounds impair SARS-COV-2 RNA synthesis and SARS-COV-2-induced release of inflammatory mediators in human primary monocytes.
Human primary monocytes were obtained after 3 h of plastic adherence of peripheral blood mononuclear cells (PBMCs). PBMCs were isolated from healthy donors by density gradient centrifugation (Ficoll-Paque, GE Healthcare). PBMCs (2.0×10^6 cells) were plated onto 48-well plates (NalgeNunc) in RPMI-1640 without serum for 2 to 4 h. Non-adherent cells were removed, and the remaining monocytes were maintained in DMEM with 5% human serum (HS; Millipore) and penicillin/streptomycin. Monocytes were infected at MOI of 0.1. After 1 h inoculation period, cells were washed with phosphate saline buffer (PBS) to remove unbounded viruses and treated with 1 μM of the indicated compounds. After 24 h after infection, cell monolayers werc lysed total viral RNA was extracted, quantitative RT-PCR was performed, to detect the SARS-COV-2 and the housekeeping gene RNAse P.

Where [9] appears, read: Severe acute respiratory syndrome coronavirus 2, Calu-3, 72 h, Calu-3 (MOI 0.5 72 h), single moment treatment.

Like-named read-outs stand apart in the source and are kept apart here.

Regarding `C/C(=C\CNc1ncnc2c1ncn2[C@@H]1O[C@H](CO)[C@@H](O)[C@H]1O)CO` [MB-804, zeatin riboside], the SI with SARS-COV-2 [1] (Calu-3, single moment treatment, CC50/EC50) worked out at 500; in the data set with SARS-COV-2 [4] (Huh-7, CC50/EC50), 78; in the data set with SARS-COV-2 [6] (Vero, CC50/EC50), 454. Also, the EC50 in the data set on SARS-COV-2 [1] (setting [9]) is 1.2 µM; in the data set with SARS-COV-2 [4] (Severe acute respiratory syndrome coronavirus 2, Huh-7 (MOI 0.1 48 h), read-out: EC50), 7.2 µM; in the data set on SARS-COV-2 [6] (Severe acute respiratory syndrome coronavirus 2, Vero (MOI 0.01 24 h), read-out: EC50), 1.4 µM. This compound also registered an EC90 in the data set with SARS-COV-2 [1] (setting [9]) of 9.1 µM. Besides, the half-maximal cytotoxic concentration (CC50) at 3 days in data set [2] was 550 µM; in data set [3], 580 µM; in data set [7] it was 636 µM. The “effect of co-treatment with raltegravir or dolutegravir (iEXO) on inhibition of SARS-COV-2” value in the data set with SARS-COV-2 [5] was “synergistic”. For the same compound, in the data set on SARS-COV-2 [8], the “viral RNA levels/cell” value is “reduced”.
